Test results reported in patent US10226478B2, “Dosage regimen for sapacitabine and decitabine in combination for treating acute myeloid leukemia” (Cyclacel Limited, priority 2011, dated 2019).
Where two headings read alike, the source gives them in different places.

How the values were obtained:
[1] = tested on: HL60 cells; experiment: 72 h single agent cytotoxicity, alamar blue assay; format: cell-based; details: Homo sapiens
Experimental: (§1) In order to complete the combination studies, the cytotoxic effects of individual compounds were determined.
(§2) A dilution series for each drug was prepared in medium. Two hours after seeding, an equal volume of each compound was added at twice the desired concentration and incubated for 72 hours. All treatments were performed in triplicate. At the end of the incubation, a 20% stock of alamar blue (Roche, Lewes, UK) was prepared in media, and an equal volume was added to each well and incubated for three hours. Absorbance was read at 544-595 nm and data was analysed (Excel Fit v4.0) to determine the IC50 (concentration of compound that inhibited cell growth by 50%) for each compound.

[2] = tested on: MV4-11 cells; experiment: 72 h single agent cytotoxicity, alamar blue assay; format: cell-based; details: Homo sapiens
Experimental: as §1, §2

[3] = tested on: HL60 cells; experiment: Annexin V staining (apoptosis, flow cytometry); details: single agents, azacitidine 72 and 96 hours, CNDAC 48 or 72 hours
Experimental: Single agent treatments were also performed as controls. After incubation cells were centrifuged at 500 g for 5 min, washed twice in PBS and once in annexin buffer (10 mM Hepes pH 7.4, 2.5 mM CaCl2, and 140 mM NaCl). Cells were resuspended at 1×10^6/ml and 100 μl was transferred to a 5 ml tube prior to incubation for 10 min in the dark at room temperature with 5 μl of annexin V-FITC stain (Beckton Dickinson) and 10 μl of propidium iodide [50 mg/ml]. Annexin buffer (1 ml) was added and the cells were analysed by flow cytometry. Annexin V positive cells (apoptotic) were designated on the basis of green fluorescence and propidium iodide (dead) positive cells were designated on the basis of red fluorescence.

[4] = tested on: cell line that is resistant to cytarabine; details: cited from earlier work

`N#C[C@H]1[C@H](O)[C@@H](CO)O[C@H]1n1ccc(N)nc1=O` [CNDAC, 1-(2-C-Cyano-2-deoxy-β-D-arabino-pentafuranosyl)-cytosine] showed an IC50 ([1]; HL-60, HL60 cells, 72 hour, read-out: 1×IC50) of 133 nM, an IC50 ([1]; HL-60 cells, read-out: IC50) of 130 nM and an IC50 [2] of 460 nM. The “annexin V, proportion of apoptotic cells” value [3] was “little effect”.
With `Nc1ncn([C@@H]2O[C@H](CO)[C@@H](O)[C@H]2O)c(=O)n1` [azacitidine, 4-amino-1-β-D-ribofuranosyl-s-triazin-2(1H)-one] the IC50 ([1]; HL-60, HL60 cells, 72 hour, half of the IC50, read-out: 0.5×IC50) was 128 nM, the IC50 ([1]; HL-60 cells, half of the IC50, read-out: 0.5×IC50) was 130 nM and the “annexin V, proportion of apoptotic cells” value [3] was “small increase in the proportion of apoptotic cells”.
In the case of `Nc1ccn([C@@H]2O[C@H](CO)[C@@H](O)[C@@H]2O)c(=O)n1` [cytarabine], the IC50 ([4]; after 5-azacitidine (upregulation of dCK)) is listed as 550 nM and the IC50 ([4]; before 5-azacitidine) is listed as 12500 nM.
